Measured values as given in patent US10519152B2, “Compounds and their use in treating cancer” (AstraZeneca AB, priority 2017, dated 2019).

The compounds below were run against T1, recombinant human Estrogen Receptor alpha ligand binding domain, residues 307-554 (ER alpha-LBD (GST)) (Homo sapiens, UniProt P03372) (assay: ERα binding assay (LanthaScreen TR-FRET competition)). Conditions: TR-FRET competition with Fluormone ES2 tracer, 4 hours at room temperature; single experiment or average of two or more.
T1 construct: made in house
T1 sequence (P03372 307-554): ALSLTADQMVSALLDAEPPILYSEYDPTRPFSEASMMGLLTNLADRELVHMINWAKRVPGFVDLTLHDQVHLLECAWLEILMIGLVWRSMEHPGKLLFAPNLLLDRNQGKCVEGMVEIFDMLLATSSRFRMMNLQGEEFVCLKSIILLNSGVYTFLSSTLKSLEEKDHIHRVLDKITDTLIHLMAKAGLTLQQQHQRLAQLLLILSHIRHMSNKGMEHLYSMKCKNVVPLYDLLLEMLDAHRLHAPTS

Point of comparison: `Cc1ncsc1-c1ccc(CNC(=O)[C@@H]2C[C@@H](O)CN2C(=O)[C@@H](NC(=O)CCCCCCOCCCOc2cc(F)c([C@@H]3c4[nH]c5ccccc5c4C[C@@H](C)N3CC(C)(C)F)c(F)c2)C(C)(C)C)cc1` [Example 110, (2S,4R)-1-((S)-2-(7-(3-(3,5-difluoro-4-((1R,3R)-2-(2-fluoro-2-methylpropyl)-3-methyl-2,3,4,9-tetrahydro-1H-pyrido[3,4-b]indol-1-yl)phenoxy)propoxy)heptanamido)-3,3-dimethylbutanoyl)-4-hydroxy-N-(4-(4-methylthiazol-5-yl)benzyl)pyrrolidine-2-carboxamide], IC50 0.7 nM. Against it:
- Cc1ncsc1-c1ccc(CNC(=O)[C@@H]2C[C@@H](O)CN2C(=O)[C@@H](NC(=O)CCCc2ccc(COc3cc(F)c([C@@H]4c5[nH]c6ccccc6c5C[C@@H](C)N4CC(C)(C)F)c(F)c3)nc2)C(C)(C)C)cc1 [Example 141, (2S,4R)-1-((S)-2-(4-(6-((3,5-Difluoro-4-((1R,3R)-2-(2-fluoro-2-methylpropyl)-3-methyl-2,3,4,9-tetrahydro-1H-pyrido[3,4-b]indol-1-yl)phenoxy)methyl)pyridin-3-yl)butanamido)-3,3-dimethylbutanoyl)-4-hydroxy-N-(4-(4-methylthiazol-5-yl)benzyl)pyrrolidine-2-carboxamide] — 1.7-fold higher, 1.2 nM
- Cc1ncsc1-c1ccc(CNC(=O)[C@@H]2C[C@@H](O)CN2C(=O)[C@@H](NC(=O)COCC(F)(F)COCCCOc2cc(F)c([C@@H]3c4[nH]c5ccccc5c4C[C@@H](C)N3CC(C)(C)F)c(F)c2)C(C)(C)C)cc1 [Example 125, (2S,4R)-1-((S)-2-(2-(3-(3-(3,5-Difluoro-4-((1R,3R)-2-(2-fluoro-2-methylpropyl)-3-methyl-2,3,4,9-tetrahydro-1H-pyrido[3,4-b]indol-1-yl)phenoxy)propoxy)-2,2-difluoropropoxy)acetamido)-3,3-dimethylbutanoyl)-4-hydroxy-N-(4-(4-methylthiazol-5-yl)benzyl)pyrrolidine-2-carboxamide] — within 1.5-fold, 1 nM
- Cc1ncsc1-c1ccc(CNC(=O)[C@@H]2C[C@@H](O)CN2C(=O)[C@@H](NC(=O)COCc2ccnc(COc3cc(F)c([C@@H]4c5[nH]c6ccccc6c5C[C@@H](C)N4CC(C)(C)F)c(F)c3)c2)C(C)(C)C)cc1 [Example 134, (2S,4R)-1-((S)-2-(2-((2-((3,5-Difluoro-4-((1R,3R)-2-(2-fluoro-2-methylpropyl)-3-methyl-2,3,4,9-tetrahydro-1H-pyrido[3,4-b]indol-1-yl)phenoxy)methyl)pyridin-4-yl)methoxy)acetamido)-3,3-dimethylbutanoyl)-4-hydroxy-N-(4-(4-methylthiazol-5-yl)benzyl)pyrrolidine-2-carboxamide] — within 1.5-fold, 0.6 nM
- Cc1ncsc1-c1ccc(CNC(=O)[C@@H]2C[C@@H](O)CN2C(=O)[C@@H](NC(=O)COCCCCCN(CCOc2cc(F)c([C@@H]3c4[nH]c5ccccc5c4C[C@@H](C)N3CC(C)(C)F)c(F)c2)C(=O)OCc2ccccc2)C(C)(C)C)cc1 [Example 45, Benzyl (2-(3,5-difluoro-4-((1R,3R)-2-(2-fluoro-2-methylpropyl)-3-methyl-2,3,4,9-tetrahydro-1H-pyrido[3,4-b]indol-1-yl)phenoxy)ethyl)(5-(2-(((S)-1-((2S,4R)-4-hydroxy-2-((4-(4-methylthiazol-5-yl)benzyl)carbamoyl)pyrrolidin-1-yl)-3,3-dimethyl-1-oxobutan-2-yl)amino)-2-oxoethoxy)pentyl)carbamate] — 1.7-fold higher, 1.2 nM
- Cc1ncsc1-c1ccc(CNC(=O)[C@@H]2C[C@@H](O)CN2C(=O)[C@@H](NC(=O)COCCCCCCOc2ccc([C@@H]3c4[nH]c5ccccc5c4C[C@@H](C)N3CC(F)F)nc2)C(C)(C)C)cc1 [Example 8, (2S,4R)-1-((S)-2-(2-((6-((6-((1S,3R)-2-(2,2-Difluoroethyl)-3-methyl-2,3,4,9-tetrahydro-1H-pyrido[3,4-b]indol-1-yl)pyridin-3-yl)oxy)hexyl)oxy)acetamido)-3,3-dimethylbutanoyl)-4-hydroxy-N-(4-(4-methylthiazol-5-yl)benzyl)pyrrolidine-2-carboxamide] — 9.7-fold higher, 6.8 nM
- Cc1ncsc1-c1ccc(CNC(=O)[C@@H]2C[C@@H](O)CN2C(=O)[C@@H](NC(=O)CCCCCCCCCCOc2cc(F)c([C@@H]3c4[nH]c5ccccc5c4C[C@@H](C)N3CC(C)(C)F)c(F)c2)C(C)(C)C)cc1 [Example 32, (2S,4R)-1-((S)-2-(11-(3,5-Difluoro-4-((1R,3R)-2-(2-fluoro-2-methylpropyl)-3-methyl-2,3,4,9-tetrahydro-1H-pyrido[3,4-b]indol-1-yl)phenoxy)undecanamido)-3,3-dimethylbutanoyl)-4-hydroxy-N-(4-(4-methylthiazol-5-yl)benzyl)pyrrolidine-2-carboxamide] — 3.3-fold higher, 2.3 nM
- Cc1ncsc1-c1ccc(CNC(=O)[C@@H]2C[C@@H](O)CN2C(=O)[C@@H](NC(=O)CNCCC(F)(F)CCOc2cc(F)c([C@@H]3c4[nH]c5ccccc5c4C[C@@H](C)N3CC(C)(C)F)c(F)c2)C(C)(C)C)cc1 [Example 131, (2S,4R)-1-((S)-2-(2-((5-(3,5-Difluoro-4-((1R,3R)-2-(2-fluoro-2-methylpropyl)-3-methyl-2,3,4,9-tetrahydro-1H-pyrido[3,4-b]indol-1-yl)phenoxy)-3,3-difluoropentyl)amino)acetamido)-3,3-dimethylbutanoyl)-4-hydroxy-N-(4-(4-methylthiazol-5-yl)benzyl)pyrrolidine-2-carboxamide] — 2.3-fold higher, 1.6 nM
- Cc1ncsc1-c1ccc([C@H](C)NC(=O)[C@@H]2C[C@@H](O)CN2C(=O)[C@@H](NC(=O)COCCCCCOCCOc2cc(F)c([C@@H]3c4[nH]c5ccccc5c4C[C@@H](C)N3CC(C)(C)F)c(F)c2)C(C)(C)C)cc1 [Example 157, (2S,4R)-1-((S)-2-(2-((5-(2-(3,5-Difluoro-4-((1R,3R)-2-(2-fluoro-2-methylpropyl)-3-methyl-2,3,4,9-tetrahydro-1H-pyrido[3,4-b]indol-1-yl)phenoxy)ethoxy)pentyl)oxy)acetamido)-3,3-dimethylbutanoyl)-4-hydroxy-N—((S)-1-(4-(4-methylthiazol-5-yl)phenyl)ethyl)pyrrolidine-2-carboxamide] — within 1.5-fold, 0.8 nM
- Cc1ncsc1-c1ccc([C@H](C)NC(=O)[C@@H]2C[C@@H](O)CN2C(=O)[C@@H](NC(=O)COCCCCCOc2cc(F)c([C@@H]3c4[nH]c5ccccc5c4C[C@@H](C)N3CC(C)(C)F)c(F)c2)C(C)(C)C)cc1 [Example 28, (2S,4R)-1-((S)-2-(2-((5-(3,5-Difluoro-4-((1R,3R)-2-(2-fluoro-2-methylpropyl)-3-methyl-2,3,4,9-tetrahydro-1H-pyrido[3,4-b]indol-1-yl)phenoxy)pentyl)oxy)acetamido)-3,3-dimethylbutanoyl)-4-hydroxy-N—((S)-1-(4-(4-methylthiazol-5-yl)phenyl)ethyl)pyrrolidine-2-carboxamide] — within 1.5-fold, 0.8 nM
- Cc1ncsc1-c1ccc(CNC(=O)[C@@H]2C[C@@H](O)CN2C(=O)[C@@H](NC(=O)COCCCCCOc2cc(F)c([C@@H]3c4[nH]c5ccccc5c4C[C@@H](C)N3CC(C)(C)F)c(F)c2)C(C)(C)C)cc1 [Example 18, (2S,4R)-1-((S)-2-(2-((5-(3,5-Difluoro-4-((1R,3R)-2-(2-fluoro-2-methylpropyl)-3-methyl-2,3,4,9-tetrahydro-1H-pyrido[3,4-b]indol-1-yl)phenoxy)pentyl)oxy)acetamido)-3,3-dimethylbutanoyl)-4-hydroxy-N-(4-(4-methylthiazol-5-yl)benzyl)pyrrolidine-2-carboxamide] — within 1.5-fold, 0.6 nM
